A short description of this assay: Antagonist activity against human CCR5 assessed as inhibition of HIV1 gp120-induced cell-cell fusion between human HeLa P4/R5 cells and CHO-tat10 cells expressing HIV-1JRFL viral envolop protein after 20 hrs by beta-galactosidase reporter gene assay.

The results in this text go back to BindingDB's records for doi:10.1016/j.bmcl.2011.09.133 (Genzyme, 2011).

With `Cc1ccncc1CN(c1ccc(N2CCOCC2)cc1)C1CCN([C@H](C)CCNC(=O)c2c(C)cc(Cl)nc2C)CC1`, the half-maximal inhibitory concentration (IC50) was 1590 nM. For `COc1ccc(N(Cc2cccc(C#N)n2)C2CCN([C@H](C)CCNC(=O)c3c(C)cc(C#N)nc3C)CC2)cc1` the value was 0.3 nM; for `Cc1ccncc1CN(c1ccccc1)C1CCN([C@H](C)CCNC(=O)c2c(C)cc(C#N)nc2C)CC1`, 7 nM; for `Cc1ccncc1CN(c1ccc(OCC(N)=O)cc1)C1CCN([C@H](C)CCNC(=O)c2c(C)cc(C#N)nc2C)CC1`, 0.98 nM. For `Cc1ccncc1CN(c1ccc([S+](C)[O-])cc1)C1CCN([C@H](C)CCNC(=O)c2c(C)ncnc2C)CC1` (stereo partly specified) the value was 130 nM; for `COCCOc1ccc(N(Cc2cnccc2C)C2CCN([C@H](C)CCNC(=O)c3c(C)cc(F)nc3C)CC2)cc1`, 1.3 nM.

Turning to `COCCOc1ccc(N(Cc2cnccc2C)C2CCN([C@H](C)CCNC(=O)c3c(C)cc(C#N)nc3C)CC2)cc1`, the IC50 was 0.8 nM.

As to `CC(CCNC(=O)c1c(Cl)cncc1Cl)N1CCC(N(Cc2cccc(C#N)c2)c2ccc(OC(F)(F)F)cc2)CC1` (stereo unspecified), the 50% inhibitory concentration (IC50) amounted to 3 nM. Then `COc1ccc(N(Cc2cccc(C#N)c2)C2CCN(C(C)CCNC(=O)c3c(Cl)cncc3Cl)CC2)cc1` (stereo unspecified), with 2 nM. Then `CC(CCNC(=O)c1c(Cl)cncc1Cl)N1CCC(N(Cc2cccc(C#N)c2)c2ccc(C(F)(F)F)cc2)CC1` (stereo unspecified), with 3 nM; and `CC(CCNC(=O)c1c(Cl)cncc1Cl)N1CCC(N(Cc2cccc(C#N)c2)c2ccc(Br)cc2)CC1` (stereo unspecified), with 8 nM; and `COc1cccc(CN(c2ccc(Br)cc2)C2CCN(C(C)CCNC(=O)c3c(Cl)cncc3Cl)CC2)c1` (stereo unspecified), with 387 nM. Then `CC(CCNC(=O)c1c(Cl)cncc1Cl)N1CCC(N(Cc2cccc(Cl)c2)c2ccc(Br)cc2)CC1` (stereo unspecified), with 30 nM. On to `CC(CCNC(=O)c1c(Cl)cncc1Cl)N1CCC(N(Cc2ccccc2)c2ccc(Oc3ccc(C(=O)O)cc3)cc2)CC1` (stereo unspecified), for which the half-inhibitory concentration (IC50) amounted to 11 nM. For `CC(CCNC(=O)c1c(Cl)cncc1Cl)N1CCC(N(Cc2ccccc2)c2ccc(C(=O)N(C)C)cc2)CC1` (stereo unspecified) the value was 116 nM; for `COC(=O)c1ccc(N(Cc2ccccc2)C2CCN(C(C)CCNC(=O)c3c(Cl)cncc3Cl)CC2)cc1` (stereo unspecified), 90 nM; for `CC(CCNC(=O)c1c(Cl)cncc1Cl)N1CCC(N(Cc2ccccc2)c2ccc(C#N)cc2)CC1` (stereo unspecified), 19 nM. Turning to `CC(CCNC(=O)c1c(Cl)cncc1Cl)N1CCC(N(Cc2ccccc2)c2ccc(OC(F)(F)F)cc2)CC1` (stereo unspecified), the IC50 came out at 26 nM. Then `COc1ccc(N(Cc2ccccc2)C2CCN(C(C)CCNC(=O)c3c(Cl)cncc3Cl)CC2)cc1` (stereo unspecified), with 50 nM; and `CC(CCNC(=O)c1c(Cl)cncc1Cl)N1CCC(N(Cc2ccccc2)c2ccc(C(F)(F)F)cc2)CC1` (stereo unspecified), with 34 nM; and `COc1ccc(N(Cc2cccc(C#N)n2)C2CCN([C@H](C)CCNC(=O)c3c(C)cc(Cl)nc3C)CC2)cc1`, with 0.3 nM.

For the molecule `COc1ccc(N(Cc2cccc(C#N)n2)C2CCN([C@H](C)CCNC(=O)c3c(C)cc(F)nc3C)CC2)cc1`, the 50% inhibitory concentration (IC50) worked out at 0.7 nM. As to `COCCOc1ccc(N(Cc2cnccc2C)C2CCN([C@H](C)CCNC(=O)c3c(C)cc(Cl)nc3C)CC2)cc1`, the 50% inhibitory concentration (IC50) came out at 0.6 nM. Take `COc1ccc(N(Cc2cnccc2C)C2CCN([C@H](C)CCNC(=O)c3c(C)cc(C(=O)NC(C)C)nc3C)CC2)cc1`: the IC50 turned out to be 0.09 nM. For `COc1ccc(N(Cc2cnccc2C)C2CCN([C@H](C)CCNC(=O)c3c(C)cc(C#N)nc3C)CC2)cc1` the value was 0.3 nM. For the molecule `COc1ccc(N(Cc2cccnc2)C2CCN([C@H](C)CCNC(=O)c3c(C)cc(F)nc3C)CC2)cc1`, the half-maximal inhibitory concentration (IC50) stood at 1.6 nM. For `COc1ccc(N(Cc2cnccc2C)C2CCN([C@@H](C)CCNC(=O)c3c(C)cc(Cl)nc3C)CC2)cc1` the value was 40 nM; for `COc1ccc(N(Cc2cnccc2C)C2CCN([C@H](C)CCNC(=O)c3c(C)cc(F)nc3C)CC2)cc1`, 0.3 nM; for `COc1ccc(N(Cc2cccnc2)C2CCN([C@H](C)CCNC(=O)c3c(C)cc(Cl)nc3C)CC2)cc1`, 1.5 nM. With `COc1ccc(N(Cc2cnccc2C)C2CCN([C@H](C)CCNC(=O)c3c(C)cc(Cl)nc3C)CC2)cc1`, the half-maximal inhibitory concentration (IC50) is 0.2 nM. For the molecule `COc1ccc(N(Cc2cnccc2C)C2CCN([C@H](C)CCNC(=O)c3cnc(Cl)cc3C)CC2)cc1`, the IC50 was found to be 12.3 nM. Then `COc1ccc(N(Cc2cnccc2C)C2CCN([C@H](C)CCNC(=O)c3c(C)ccnc3Cl)CC2)cc1`, with 0.7 nM; and `COc1ccc(N(Cc2cnccc2C)C2CCN([C@H](C)CCNC(=O)c3c(C)ccnc3C)CC2)cc1`, with 2.4 nM; and `COc1ccc(N(Cc2cnccc2C)C2CCN([C@H](C)CCNC(=O)c3c(C)cncc3C)CC2)cc1`, with 7 nM. For `CC(CCNC(=O)c1c(Cl)cncc1Cl)N1CCC(N(Cc2cccc(C#N)c2)c2ccc(C#N)cc2)CC1` (stereo unspecified) the value was 12 nM.

Consider `CC(CCNC(=O)c1c(Cl)cncc1Cl)N1CCC(N(Cc2ccccc2)c2ccc(Br)cc2)CC1` (stereo unspecified) [N-(3-(4-(benzyl(4-bromophenyl)amino)piperidin-1-yl)butyl)-3,5-dichloroisonicotinamide], for which the concentration for half-maximal inhibition (IC50) turned out to be 49 nM.

Broadly, the IC50 is the midpoint of a concentration-inhibition curve.
